Converted amounts (≈) assume the structure as drawn. Values belong to the compound of their own block, whether it stands above or below them.
Tests used:
[1] = system: transplanted tumor of human breast cancer cell MDA-MB-231; experiment: MDA-MB-231 transplanted tumor in nude mice
Protocol: Then cell concentration was adjusted to 1×10^7/ml with matrigel, then each nude mouse was inoculated subcutaneously with 0.2 ml of cells at its right armpit and recorded as the first day of inoculation. When the tumor grows to be greater than or equal to 100 mm^3, the mice were randomly divided into 11 groups with 6 mice in each group: a model group, a cyclophosphamide group, isovaleryl spiramycin I groups with doses of 25, 50 and 100 mg/kg, isovaleryl spiramycin II groups with doses of 25, 50 and 100 mg/kg, and isovaleryl spiramycin III groups with doses of 25, 50 and 100 mg/kg. Each group was continuously administered intragastrically for 30 days with a dose of 20 ml/kg. The mice were sacrificed the next day after drug withdrawal and the indicators were tested. The long diameter and short diameter of the tumor, and the body weight of each mouse were recorded every 3 days from drug administration to nude mouse sacrifice.
The body weight of the nude mice and the long diameter (a) and short diameter (b) of the transplanted tumor were measured every 3 days, and the tumor volume (v), relative tumor volume (RTV) and relative tumor proliferation rate (T/C) are calculated respectively according to the following formulas, wherein V=a×b^2/2; RTV=V/V0 (V0 is the tumor volume before administration, V is the tumor volume before sacrifice), and T/C (%)=treatment group RTV/model control group RTV×100%.
Each mouse was weighed and sacrificed. After the tumor was completely stripped off from the body of the mouse, the non-tumor tissues such as blood stains and fat were removed to weigh the tumor and calculate the tumor growth inhibition rate. The average tumor weight of each group of mice is used as an indicator of efficacy. Tumor growth inhibition rate (%)=(1−the average tumor weight of the treatment group/the average tumor weight of the model group)×100%.

[2] = system: transplanted tumor of mouse Lewis lung cancer; experiment: Transplanted tumor of mouse Lewis lung cancer; conditions: for Tumor Volume (mm3) (d 1) / Tumor Volume (mm3) (d30) / Relative Tumor Proliferation Rate (T/C) / Relative Tumor Volume (RTV): title prints KM mouse H22 cells; for Tumor Volume (mm3) (d30): d 30
Protocol: Lewis lung cancer cells were cultured in a RPMI 1640 culture medium containing 10% fetal bovine serum at 37° C. in a 5% CO2 incubator. The cells in the logarithmic growth phase were subjected to trypsinization with 0.25% trypsin, then the cells were collected to be centrifugated to remove the obtained supernatant, then were washed twice with sterile normal saline. […] The Lewis cells were adjusted to 1×10^7/mL in concentration and stored in ice water. 75% ethanol was used to disinfect the skin under the right armpits of the mice, and each C57BL/6 mouse was soon inoculated subcutaneously with 0.2 ml of the cells at its right armpit.
In the Lewis lung cancer model, the mice inoculated with the tumor were randomly divided into groups with 10 mice in each group the next day of inoculation. The groups included: a model control group, a positive drug cyclophosphamide control group (CTX, 30 mg/kg), isovaleryl spiramycin I groups with doses of 13, 26 and 52 mg/kg; isovaleryl spiramycin II groups with doses of 13, 26 and 52 mg/kg; isovaleryl spiramycin III groups with doses of 13, 26 and 52 mg/kg. Each group was continuously administered intragastrically for 15 days with a dose of 20 ml/kg.
The tumor-bearing mice were weighed and sacrificed the next day after the last administration. The subcutaneous tumors were dissected and weighed. The average tumor weight of each group is calculated, and the tumor inhibition rate is calculated.
Tumor inhibition rate=(1−T/C)×100%
T: average tumor weight of the drug-administered group; C: average tumor weight of the blank control group.

[3] = system: human glioblastoma cell A172; conditions: A172, MTT, 48 hours
Protocol: (§1) The purpose of the assay is to evaluate the in vitro cell proliferation inhibition or cytotoxic activity of a tested sample.
(§2) MCF-7, MDA-MB-231, HepG2, A549, H460, H1299, 786-0, 769-P, U251, A172, HeLa, PC3, PANC-1, TE-1, SGC7901, and HT-29 were adherent tumor cells. The adherent tumor cells in the logarithmic growth phase were selected and digested with trypsin, then were prepared into a 4 to 5×10^4/ml cell suspension by a medium containing 10% fetal bovine serum. And the cell suspension was inoculated in a 96-well culture plate, and each well was 100 μL. The 96-well culture plate was cultured at 37° C. and 5% CO2 for 24 hours. The experimental group was replaced with a new culture medium containing different concentrations of the sample to be tested, namely, isovaleryl spiramycin I, isovaleryl spiramycin II, or isovaleryl spiramycin III, while the control group was replaced with a culture medium containing the same volume of solvent. Each group was set up with 3 parallel wells that were cultured at 37° C. and 5% CO2 for 48 hours. After the supernatant was removed, the wells were washed carefully for 3 times with PBS. And 100 μL of freshly prepared culture medium containing 0.5 mg/ml MTT was added to each well for continuous incubation for 4 hours at 37° C. After the supernatant was removed carefully, 150 μL of DMSO was added to each well, and after the material was mixed for 10 minutes with a micro-oscillator, the optical density value was measured at 492 nm with a microplate reader.
(§3) The inhibition rate of the medicament on tumor cell growth is calculated according to the following formula:
(§4) Tumor cell growth inhibition rate (%)=[A492 (negative control)−A492 (dosing group)]/A492 (negative control)×100%
(§5) And the half-inhibitory concentration (IC50) of the sample is determined therefrom.

[4] = system: human breast cancer cells MCF-7; conditions: MCF-7, MTT, 48 hours
Protocol: as §1, §2, §3, §4, §5

[5] = system: human renal clear cell adenocarcinoma cell 786-O; conditions: MTT, 48 hours
Protocol: as §1, §2, §3, §4, §5

[6] = system: human prostate cancer cell PC3; conditions: PC3, MTT, 48 hours
Protocol: as §1, §2, §3, §4, §5

[7] = system: human pancreatic cancer cell PANC-1; conditions: PANC-1, MTT, 48 hours
Protocol: as §1, §2, §3, §4, §5

[8] = MDA-MB-231, 30 mg/kg i.g. 30 days
[9] = MDA-MB-231, 25 mg/kg (low dose) i.g. 30 days
[10] = MDA-MB-231, 50 mg/kg (medium dose) i.g. 30 days
[11] = MDA-MB-231, 100 mg/kg (high dose) i.g. 30 days

Structure (SMILES): O=P1(N(CCCl)CCCl)NCCCO1 (stereo not shown) [Cyclophosphamide, cyclophosphamide, reference compound]
Body Weight (d 1) [1, 8]: 21.65 ± 1.50 g
Body Weight (d 30) [1, 8]: 19.26 ± 1.49 g
Inhibition Rate (tumor growth inhibition rate) [1, 8]: 70.54%
Relative Tumor Proliferation Rate (T/C) [1, 8]: 37.73%
Relative Tumor Volume (RTV) [1, 8]: 5.89 ± 2.84
Tumor Volume (d 1) [1, 8]: 116.90 ± 7.18 mm3
Tumor Volume (d 30) [1, 8]: 691.84 ± 337.21 mm3
Tumor Weight [1, 8]: 0.38 ± 0.27 g
Inhibition Rate (%) ([2]; dose 30 mg/kg): 76.43%
Tumor Weight ([2]; dose 30 mg/kg): 0.38 ± 0.07 g
Body Weight (g) (d1) ([2]; dose 30 mg/kg, d 1): 19.62 ± 1.01 g
Tumor Volume (mm3) (d 1) ([2]; dose 30 mg/kg, d 1): 104.35 ± 30.89 mm3
Body Weight (g) (d 15) ([2]; dose 30 mg/kg, d 15): 21.38 ± 0.67 g
Tumor Volume (mm3) (d30) ([2]; dose 30 mg/kg): 371.39 ± 112.68 mm3
Relative Tumor Proliferation Rate (T/C) ([2]; dose 30 mg/kg): 24.55
Relative Tumor Volume (RTV) ([2]; dose 30 mg/kg): 3.93 ± 1.86
tumor inhibition rate ([2]; mouse Lewis lung cancer, CTX 30 mg/kg i.g. 15 days): 76.43%

IC50 [3]: 10.24 ± 0.37 µg/mL (≈ 11 µM)
IC50 [4]: 20.79 ± 1.57 µg/mL (≈ 22.4 µM)
IC50 [5]: 5.08 ± 0.08 µg/mL (≈ 5.48 µM)
IC50 [6]: 9.39 ± 0.85 µg/mL (≈ 10.1 µM)
IC50 [7]: 9.96 ± 0.46 µg/mL (≈ 10.7 µM)
mouse weight compared with the model group ([1]; mouse, in vivo): no significant changes
Structure (SMILES): CO[C@@H]1[C@@H](O[C@@H]2O[C@H](C)[C@@H](O[C@H]3C[C@@](C)(O)[C@@H](OC(=O)CC(C)C)[C@H](C)O3)[C@H](N(C)C)[C@H]2O)[C@@H](CC=O)C[C@@H](C)[C@@H](O[C@H]2CC[C@H](N(C)C)[C@@H](C)O2)/C=C/C=C/C[C@@H](C)OC(=O)C[C@H]1O [Isovaleryl spiramycin I, isovaleryl spiramycin I]
Inhibition Rate (tumor growth inhibition rate) [1, 9]: 22.84%
Relative Tumor Proliferation Rate (T/C) [1, 9]: 69.71%
Relative Tumor Volume (RTV) [1, 9]: 10.89 ± 2.52
Tumor Volume (d 1) [1, 9]: 111.07 ± 8.47 mm3
Tumor Volume (d 30) [1, 9]: 1213.38 ± 299.29 mm3
Tumor Weight [1, 9]: 1.79 ± 0.34 g
Inhibition Rate (tumor growth inhibition rate) [1, 10]: 55.17%
Relative Tumor Proliferation Rate (T/C) [1, 10]: 44.18%
Relative Tumor Volume (RTV) [1, 10]: 6.90 ± 2.43
Tumor Volume (d 1) [1, 10]: 116.00 ± 8.13 mm3
Tumor Volume (d 30) [1, 10]: 807.45 ± 319.26 mm3
Tumor Weight [1, 10]: 1.04 ± 0.44 g
Inhibition Rate (tumor growth inhibition rate) [1, 11]: 69.11%
Relative Tumor Proliferation Rate (T/C) [1, 11]: 27.74%
Relative Tumor Volume (RTV) [1, 11]: 4.33 ± 3.47
Tumor Volume (d 1) [1, 11]: 111.91 ± 10.26 mm3
Tumor Volume (d 30) [1, 11]: 458.55 ± 338.74 mm3
Tumor Weight [1, 11]: 0.72 ± 0.48 g
tumor volume and relative tumor volume compared with the model group ([1]; MDA-MB-231, low, medium and high doses, P<0.05): significantly lower
growth of Lewis lung cancer in mice ([2]; 13, 26 and 52 mg/kg i.g. 15 days): significantly inhibit
Tumor Volume (mm3) (d 1) ([2]; dose 12.5 mg/kg, d 1): 104.68 ± 20.89 mm3
Tumor Volume (mm3) (d30) ([2]; dose 12.5 mg/kg): 955.73 ± 330.24 mm3
Relative Tumor Proliferation Rate (T/C) ([2]; dose 12.5 mg/kg): 57.56
Relative Tumor Volume (RTV) ([2]; dose 12.5 mg/kg): 9.22 ± 2.95
Inhibition Rate (%) ([2]; dose 13 mg/kg): 46.94%
Tumor Weight ([2]; dose 13 mg/kg): 0.85 ± 0.24 g
Tumor Volume (mm3) (d 1) ([2]; dose 25 mg/kg, d 1): 104.31 ± 19.76 mm3
Tumor Volume (mm3) (d30) ([2]; dose 25 mg/kg): 756.20 ± 145.84 mm3
Relative Tumor Proliferation Rate (T/C) ([2]; dose 25 mg/kg): 45.51
Relative Tumor Volume (RTV) ([2]; dose 25 mg/kg): 7.29 ± 0.82
Inhibition Rate (%) ([2]; dose 26 mg/kg): 62.97%
Tumor Weight ([2]; dose 26 mg/kg): 0.59 ± 0.06 g
Tumor Volume (mm3) (d 1) ([2]; dose 50 mg/kg, d 1): 103.79 ± 19.55 mm3
Tumor Volume (mm3) (d30) ([2]; dose 50 mg/kg): 465.26 ± 52.94 mm3
Relative Tumor Proliferation Rate (T/C) ([2]; dose 50 mg/kg): 29.05
Relative Tumor Volume (RTV) ([2]; dose 50 mg/kg): 4.65 ± 1.27
Inhibition Rate (%) ([2]; dose 52 mg/kg): 71.83%
Tumor Weight ([2]; dose 52 mg/kg): 0.45 ± 0.14 g
Body Weight (g) (d1) ([2]; mouse, in vivo, 13 mg/kg): 19.93 ± 1.20 g
Body Weight (g) (d 15) ([2]; mouse, in vivo, 13 mg/kg): 22.70 ± 0.87 g
Body Weight (g) (d1) ([2]; mouse, in vivo, 26 mg/kg): 19.45 ± 0.68 g
Body Weight (g) (d 15) ([2]; mouse, in vivo, 26 mg/kg): 23.43 ± 1.41 g
Body Weight (g) (d1) ([2]; mouse, in vivo, 52 mg/kg): 19.87 ± 1.17 g
Body Weight (g) (d 15) ([2]; mouse, in vivo, 52 mg/kg): 23.25 ± 0.43 g

Reference: patent US20200163984A1, “USE OF ISOVALERYL SPIRAMYCIN I, II AND/OR III IN MANUFACTURING MEDICAMENT FOR TREATING AND/OR PREVENTING TUMOR, AND MEDICAMENT” (SHENYANG FUYANG PHARMACEUTICAL TECHNOLOGY CO., LTD., priority 2017, published 2020)
